Experimental data: US20230167408A1, “METHODS AND COMPOSITIONS FOR MAINTAINING AND EXPANDING HEMATOPOIETIC STEM CELLS” (Trailhead Biosystems Inc., priority 2021, published 2023)
“Also recorded” adds a separate entry of the source.

Legend:
Type in all cases: cell-based, human
[1] = test system: CD34+ population of cells isolated from cord blood; assay: HD-DoE effector experiments, gene expression modeling after 3-day treatment; conditions: for factor contribution (impact) on expression of CRHBP: 8-factor experiment tropoelastin, lipid mixture, propionate, biotin, geltrex, N-acetyl cysteine, prostaglandin E2, VPA, FIG. 3/4; for factor contribution on expression of CRHBP: Yhhu 3792, fibronectin, TPCA-1, GW9662, Z-vad-fmk, VEGF, FIG. 5; for factor contribution on expression of MEG3: same 8-factor experiment optimized for maximum MEG3, FIG. 2
Excerpt: This example utilizes a method of High-Dimensional Design of Experiments (HD-DoE), as previously described in Bukys et al. (2020) Iscience 23:101346. The method employs computerized design geometries to simultaneously test multiple process inputs and offers mathematical modeling of a deep effector/response space. The method allows for finding combinatorial signaling inputs that control a complex process, such as during cell differentiation. It allows testing of multiple plausible critical process parameters, as such parameters impact output responses, such as gene expression. Because gene expression provides hallmark features of the phenotype of, for example, a human cell, the method can be applied to identify, and understand, which signaling pathways control cell fate. In the current example, the HD-DOE method was applied with the intent to find conditions for expansion and maintenance of HSCs.
Specifically, to develop the HSC recipe, the impact of agonists and antagonists of multiple signaling pathways (herein called effectors) were tested on expression of two sets of 53 pre-selected genes after a 3-day treatment. Specific genes in the measured subset are highly enriched in HSC and include CRHBP, MLLT3, MEG3, MECOM, HOXA5 and GATA2. The effectors chosen include small molecules or proteins, some of which are used during in vitro expansion of HSC.
To test the effectors, experiments with at least 8 factors were designed that can assess the response of cells to 48 or more different combinations of effectors in a range of concentrations. To analyze the models, we focused on expression of genes that are either expressed or enriched in primitive HSC including CRHBP, GATA2, MLLT3 and MEG3. The impact of each effector on gene expression level is defined by a parameter called factor contribution that is calculated for each effector during the modeling. All the experiments were conducted using a CD34^+ population of cells isolated from cord blood.
To identify the recipe for HSC expansion, cells were treated with various effectors for 3 days in media containing stem cell factor (SCF) and thrombopoietin (TPO) and the gene expression of cells was modeled. […] Additionally, on this model we observed NOTCH1 upregulation and MPO downregulation. […] Previous studies have shown that NOTCH1 activation increases HSC self-renewal in vivo (Stier et al. (2002) Blood 99:2369-78).
To further improve the recipe for HSC maintenance and expansion, additional HD-DoE experiments were performed. […] The goal was to evaluate further factors to possibly increase the complexity of the signaling inputs to attain effective fate control. As previously, we focused on expression of HSC enriched genes mentioned earlier. An 8-factor experiment was performed, testing tropoelastin, lipid mixture, propionate, biotin, geltrex, N-acetyl cysteine, prostaglandin E2, and VPA. Similar to the previous experiment, CD34^+ cells were treated with 48 conditions of combinations of the factors for 3 days and gene expression analysis and modeling was performed.
To further improve the recipe for HSC maintenance and expansion, additional HD-DoE experiments were performed. Another 8-factor experiment was performed consisting of LPA, Yhhu 3792, fibronectin, TPCA-1, GW9662, Z-vad-fmk, VEGF and activin A. Similarly to the previous experiment, CD34^+ cells were treated with 48 conditions of combinations of the factors for 3 days and then gene expression analysis experiments were conducted.

[2] = test system: CD34+ population of cells isolated from cord blood; assay: Factor criticality analysis (dynamic profile analysis) of HSC expansion recipe; parameters: GATA2 expression level / MEG3 expression level / CRHBP expression level: unit not given here
Excerpt: In this example, to assess the impact of elimination of each validated factor identified as described in Example 1, dynamic profile analysis was used and compared the expression level of genes of interest in the absence of each finalized factor while others are kept present. […] The results of the criticality analysis for the factors FICZ, LPA, Vit. C and Activin A are shown in FIG. 6A-B. The results of the criticality analysis for VPA are shown in FIG. 7A-B. The results of the criticality analysis for Yhhu 3792 are shown in and FIG. 8A-B.
For the HSC expansion recipe, each of the six finalized factors were removed while other five factors were present and the expression levels of GATA2, HOXA5, CRHBP was assessed compared to the presence of all […]. Because SCF and TPO are cytokines impacting cell growth and survival, our recipe included these cytokines as well. When FICZ was removed, values for GATA2 expression decreased from 642 to 512, while HOXA5 and MEG3 expression was unchanged. […] Removal of Vit.C decreased the level of MEG3 from 82 to 53. Activin A is a critical factor for MEG3, since its removal decreases MEG3 levels from 81 to 40.

CD34+ cells = assay: Culture of CD34+ cells in the presence of commonly used cytokines
Procedure: To further validate the HSC culture recipe described in Example 1, CD34+ cord blood derived cells were grown for 7 days in media comprising the ingredients shown in Table 1 and flow cytometry analysis was used to assess markers of the LT-HSC state. Markers tested included Lineage (CD3, CD14, CD16, CD19, CD20, CD56), CD34, CD38, CD45RA and CD90. Additionally, cells were grown in media with SCF and TPO as a control, commonly used by others to promote HSC expansion. […] 100,000 cells were plated for each condition.

[3] = 8-factor experiment LPA, FICZ, Pyrintegrin, Laminin521, G0693, Vit.C, G-SCF, activin A, 3 days, media with SCF and TPO, FIG. 1/2
[4] = named factor removed, other factors present
[5] = 8-factor experiment LPA, activin A, 3 days
[6] = 8-factor experiment with tropoelastin ... VPA
[7] = 8-factor experiment with tropoelastin ... VPA optimized for maximum GATA2, FIG. 4

O=Cc1c2c(cc3c1=Nc1ccccc1-3)=Nc1ccccc1-2 [FICZ, 6-Formylindolo[3,2-b]carbazole]
factor contribution (impact) on expression of GATA2 [1, 3]: 21 | factor contribution (impact) on expression of GATA2 ([1]; 8-factor experiment LPA, FICZ, Pyrintegrin, Laminin521, G0693, Vit.C, G-SCF, activin A, 3 days, media with SCF and TPO, FIG. 1/2, listed as FCIZ): positive impact | GATA2 expression level ([2]; all finalized factors present): 642 | GATA2 expression level [2, 4]: 512 | HOXA5 expression level [2, 4]: unchanged | MEG3 expression level [2, 4]: unchanged

CC(=O)N[C@@H](CS)C(=O)O [N-acetyl cysteine]
factor contribution (impact) on expression of CRHBP ([1]; 3 days): < 1

CCC(=O)O [Propionate, propionate]
factor contribution (impact) on expression of CRHBP ([1]; 3 days): 8

CCCC(CCC)C(=O)O [VPA, Valproic acid]
impact on expression of MEG3 ([1]; 8-factor experiment with tropoelastin ... VPA, FIG. 4): positive impact | CRHBP expression level ([2]; all finalized factors present): 285 | MEG3 expression level ([2]; all finalized factors present): 106 | CRHBP expression level [2, 4]: 138 | GATA2 expression level [2, 4]: reduced | MEG3 expression level [2, 4]: 52

COc1cccc(Oc2cccc3nc(Nc4ccc(C(C)C)cc4)nc(N)c23)c1 [Yhhu 3792]
factor contribution on expression of CRHBP [1, 5]: 19 | CRHBP expression level ([2]; all finalized factors present): 202 | CRHBP expression level [2, 4]: 169

O=C(O)CCCC[C@@H]1SC[C@@H]2NC(=O)N[C@@H]21 [biotin]
factor contribution (impact) on expression of CRHBP ([1]; 3 days): 5

CCCCC[C@H](O)/C=C/[C@H]1[C@H](O)CC(=O)[C@@H]1C/C=C\CCCC(=O)O [prostaglandin E2]
effect of treatment on other HSC enriched genes [1, 6]: downregulates | factor contribution (impact) on expression of GATA2 [1, 7]: 25

IL6: commonly used cytokine to expand HSC
lineage bias of CD34+ cells cultured in the presence of the cytokine (CD34+ cells): induction of a myeloid bias

L-ascorbic acid phosphate sesquimagnesium salt hydrate [Vit.C]
factor contribution (impact) on expression of GATA2 ([1]; 8-factor experiment LPA, FICZ, Pyrintegrin, Laminin521, G0693, Vit.C, G-SCF, activin A, 3 days, media with SCF and TPO, FIG. 1/2, hydrate): 12 | factor contribution (impact) on expression of GATA2 ([1]; 8-factor experiment LPA, FICZ, Pyrintegrin, Laminin521, G0693, Vit.C, G-SCF, activin A, 3 days, media with SCF and TPO, FIG. 1/2, listed as Vit. C, hydrate): positive impact | factor contribution on expression of MEG3 [1]: 16 | MEG3 expression level ([2]; all finalized factors present): 82 | MEG3 expression level [2, 4]: 53

fibronectin
factor contribution on expression of CRHBP [1, 5]: 18

lysophosphatidic acid [LPA]
factor contribution on expression of CRHBP [1, 5]: 8 | GATA2 expression level ([2]; all finalized factors present): 644 | GATA2 expression level [2, 4]: 525

B1: Activin A: TGFb pathway agonist (protein, UniProt P08476 311-426, looked up)
Inhibin beta A chain: GLECDGKVNICCKKQFFVSFKDIGWNDWIIAPSGYHANYCEGECPSHIAGTSGSSLSFHSTVINHYRMRGHSPFANLKSCCVPTKLRPMSMLYYDDGQNIIKKDIQNMIVEECGCS
modifications: Inhibin beta A chain
notes: TGFb pathway agonist
factor contribution (impact) on expression of GATA2 [1, 3]: modest; also recorded: positive impact | factor contribution on expression of CRHBP [1, 5]: 26 | factor contribution on expression of MEG3 [1]: 23 | MEG3 expression level ([2]; all finalized factors present): 81 | GATA2 expression level [2, 4]: positive impact | HOXA5 expression level [2, 4]: positive impact | MEG3 expression level [2, 4]: 40

B2: tropoelastin: effector tested in the 8-factor experiment (protein, UniProt P15502 27-786, looked up)
Elastin: GGVPGAIPGGVPGGVFYPGAGLGALGGGALGPGGKPLKPVPGGLAGAGLGAGLGAFPAVTFPGALVPGGVADAAAAYKAAKAGAGLGGVPGVGGLGVSAGAVVPQPGAGVKPGKVPGVGLPGVYPGGVLPGARFPGVGVLPGVPTGAGVKPKAPGVGGAFAGIPGVGPFGGPQPGVPLGYPIKAPKLPGGYGLPYTTGKLPYGYGPGGVAGAAGKAGYPTGTGVGPQAAAAAAAKAAAKFGAGAAGVLPGVGGAGVPGVPGAIPGIGGIAGVGTPAAAAAAAAAAKAAKYGAAAGLVPGGPGFGPGVVGVPGAGVPGVGVPGAGIPVVPGAGIPGAAVPGVVSPEAAAKAAAKAAKYGARPGVGVGGIPTYGVGAGGFPGFGVGVGGIPGVAGVPGVGGVPGVGGVPGVGISPEAQAAAAAKAAKYGAAGAGVLGGLVPGAPGAVPGVPGTGGVPGVGTPAAAAAKAAAKAAQFGLVPGVGVAPGVGVAPGVGVAPGVGLAPGVGVAPGVGVAPGVGVAPGIGPGGVAAAAKSAAKVAAKAQLRAAAGLGAGIPGLGVGVGVPGLGVGAGVPGLGVGAGVPGFGAGADEGVRRSLSPELREGDPSSSQHLPSTPSSPRVPGALAAAKAAKYGAAVPGVLGGLGALGGVGIPGGVVGAGPAAAAAAAKAAAKAAQFGLVGAAGLGGLGVGGLGVPGVGGLGGIPPAAAAKAAKYGAAGLGGVLGGAGQFPLGGVAARPGFGLSPIFPGGACLGKACGRKRK
effect of treatment on other HSC enriched genes [1, 6]: downregulates | factor contribution (impact) on expression of GATA2 [1, 7]: 17

B3: G-CSF: commonly used cytokine to expand HSC (protein, UniProt P09919 31-207, looked up)
Granulocyte …: TPLGPASSLPQSFLLKCLEQVRKIQGDGAALQEKLVSECATYKLCHPEELVLLGHSLGIPWAPLSSCPSQALQLAGCLSQLHSGLFLYQGLLQALEGISPELGPTLDTLQLDVADFATTIWQQMEELGMAPALQPTQGAMPAFASAFQRRAGGVLVASHLQSFLEVSYRVLRHLAQP
lineage bias of CD34+ cells cultured in the presence of the cytokine (CD34+ cells): induction of a myeloid bias
